The test system of one series is T47D. Put plainly: cells. Also noted: species or system MDA-MB-231, MRC-5; MTT cell viability, growth inhibition versus DMSO control, n = 4. To be noted: Homo sapiens, 48 h. The method, then: (§1) Cytotoxicity assays were evaluated against the following cell lines: T-47D ATCC, HTB-133 (hormone-dependent breast cancer), and MRC-5 ATCC, CCL171 (normal embryonic lung) from the American Type Culture Collection (ATCC, Manassas, VA) as well as MDA-MB-231 ((hormone-independent breast cancer) from M.D. Anderson Cancer Center, Houston, TX). […] The cutoff concentration is 50 μg mL^–1. Cell viability was determined using the MTT assay. […] The selectivity index between the T47D cancer cell line and the MRC-5 normal cell line is 13.5. […] In addition, this compound was previously reported to be noncytotoxic to MCF-7 cancer cell line.[36] This means that the growth inhibitory effect of hericerin depends on the types of breast cancer cell. T47D, MDA-MB-231, and MCF-7 are popular models in breast cancer studies. The T47D and MCF-7 are hormone-dependent breast cancer cells, but MDA-MB-231 is a hormone-independent breast cancer cell. […] Thus, hericerin (13) may be a good candidate to develop an anticancer agent against progesterone-sensitive breast cancer cells. Moreover, hericerin was reported to inhibit the growth of A549, SK-OV-3, SK-MEL-2, HCT-15, and HL-60 cancer cell lines.[10],[38] To determine the possible mechanism, we performed an apoptosis assay. First, T47D and MDA-MB-231 breast cancer cells were exposed to compound 13 for 48 h, and the abundance of two apoptotic markers, namely, PARP and procaspase 3, was determined by Western blot.

The next series concerns the target T1, xanthine oxidase (Bos taurus, UniProt P80457).
T1 construct: gene XDH
The experiment in a line: biochemical. Also noted: xanthine oxidase inhibition (IXO assay), dose-response, n = 3.

In a further series the test system is MDA-MB-231. The experiment in a line: cells. Also noted: species or system T47D, MRC-5; MTT cell viability, growth inhibition versus DMSO control, n = 4. To be noted: Homo sapiens, MDA-MB-231, 48 h. How it is done: as §1, with “To determine the possible mechanism, we performed an apoptosis assay.” left out
A further series can be described thus: in vitro. Also noted: species or system T47D, MDA-MB-231; MTT cell viability, growth inhibition versus DMSO control, n = 4. The following applies: human, mrc-5 cells; read-out: MRC-5 IC50. The method, then: as §1, with “To determine the possible mechanism, we performed an apoptosis assay.” left out

Structures can show the parent of a compound that is named as a salt.

T1 sequence (P80457 2-1332): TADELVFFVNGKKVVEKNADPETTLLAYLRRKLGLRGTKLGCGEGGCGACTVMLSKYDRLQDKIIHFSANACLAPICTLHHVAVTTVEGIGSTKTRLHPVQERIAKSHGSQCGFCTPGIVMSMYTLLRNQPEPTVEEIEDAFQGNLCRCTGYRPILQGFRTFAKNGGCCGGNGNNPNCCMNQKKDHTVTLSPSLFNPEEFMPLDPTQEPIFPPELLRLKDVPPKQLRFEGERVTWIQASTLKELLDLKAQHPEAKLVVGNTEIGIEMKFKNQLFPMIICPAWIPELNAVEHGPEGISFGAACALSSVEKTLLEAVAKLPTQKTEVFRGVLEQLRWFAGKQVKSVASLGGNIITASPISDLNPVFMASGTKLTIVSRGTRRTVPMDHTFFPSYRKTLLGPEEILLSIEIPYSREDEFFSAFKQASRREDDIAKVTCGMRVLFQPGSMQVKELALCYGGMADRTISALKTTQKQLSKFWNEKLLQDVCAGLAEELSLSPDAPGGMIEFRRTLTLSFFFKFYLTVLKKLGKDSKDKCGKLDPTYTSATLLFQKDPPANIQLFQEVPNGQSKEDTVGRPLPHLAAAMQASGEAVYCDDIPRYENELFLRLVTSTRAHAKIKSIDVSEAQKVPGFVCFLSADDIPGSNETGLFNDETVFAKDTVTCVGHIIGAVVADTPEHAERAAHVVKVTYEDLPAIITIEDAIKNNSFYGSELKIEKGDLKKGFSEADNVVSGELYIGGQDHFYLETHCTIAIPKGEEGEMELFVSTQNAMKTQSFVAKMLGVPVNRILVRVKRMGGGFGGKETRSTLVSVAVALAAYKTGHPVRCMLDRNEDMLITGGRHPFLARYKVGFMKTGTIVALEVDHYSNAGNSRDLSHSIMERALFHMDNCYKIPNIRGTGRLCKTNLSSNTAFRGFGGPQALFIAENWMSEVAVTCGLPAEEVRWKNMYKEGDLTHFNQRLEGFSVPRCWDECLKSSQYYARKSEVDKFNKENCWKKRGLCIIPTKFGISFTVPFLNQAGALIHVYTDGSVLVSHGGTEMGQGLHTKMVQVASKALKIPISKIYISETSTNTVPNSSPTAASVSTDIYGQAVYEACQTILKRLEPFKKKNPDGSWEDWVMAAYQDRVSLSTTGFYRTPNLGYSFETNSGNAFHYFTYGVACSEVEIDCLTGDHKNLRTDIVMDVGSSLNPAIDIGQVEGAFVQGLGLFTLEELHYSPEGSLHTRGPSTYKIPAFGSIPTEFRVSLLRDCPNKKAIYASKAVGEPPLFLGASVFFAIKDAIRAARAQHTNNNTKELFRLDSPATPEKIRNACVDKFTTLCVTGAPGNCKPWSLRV
Method for xanthine oxidase: The assays were evaluated against DPPH (diphenyl picrylhydracyl radical), XXO (reactive oxygen species generated by xanthine oxidase), and IXO (inhibition of xanthine oxidase). DMSO was used as a solvent and a negative control. […] The cutoff concentration is 100 μg mL^–1 for DPPH and 200 μg mL^–1 for XXO and IXO.

As to `Nc1ncnc2c1ncn2[C@@H]1O[C@H](CO)[C@@H](O)[C@H]1O` [compound 6, adenosine], the inhibition (usually the percentage by which the read-out fell short of the control) at 50 µg/mL with T47D amounted to 2.3 ± 2.9%; with MDA-MB-231, 2.5 ± 5%. Further, testing at 200 µg/mL at xanthine oxidase gave an inhibition of 27 ± 7.9%.

For `COc1cc2c(c(O)c1C/C=C(\C)CCC=C(C)C)C(=O)N(CCc1ccccc1)C2` [compound 13, hericerin], in the series “in vitro”, the CC50 at 48 h was 79.6 ± 13.7 µM. Moreover, the figures for the IC50 in the series on T47D and in the series on MDA-MB-231 were 5.9 ± 1.6 µM and 57.5 ± 5.4 µM, respectively. On xanthine oxidase, this compound yielded an inhibition at 200 µg/mL of 43.3 ± 5%.

As to `COc1cccc2c1C(=O)c1c(O)c3c(c(O)c1C2=O)C[C@@](O)(C(=O)CO)C[C@@H]3O[C@H]1C[C@H](N)[C@H](O)[C@H](C)O1` [Doxorubicin·HCl, Doxorubicin hydrochloride], the CC50 at 48 h in “in vitro” is 2.75 ± 0.21 µM. The midpoint of inhibition with T47D, the IC50, lay at 0.69 ± 0.03 µM.

The values above are taken from paper PMC10701869, “Anti-Xanthine Oxidase 5′-Hydroxyhericenes A–D from the Edible Mushroom Hericium erinaceus and Structure Revision of 3-[2,3-Dihydroxy-4-(hydroxymethyl)tetrahydrofuran-1-yl]-pyridine-4,5-diol” (ACS Omega, 2023).
